Assay results as given in patent US9771405B2, “Nucleic acids encoding for chimeric natriuretic polypeptides with unique pharmacologic profiles” (Mayo Foundation for Medical Education and Research, priority 2008, dated 2017).

Assay: BAA-NP, BUA-NP or human BNP infusion in anesthetized dogs: renal, hemodynamic and neurohumoral measurements
Type: in vivo, dog
Settings: for net renal generation of cGMP / plasma cGMP / urinary cGMP excretion / urinary sodium excretion / urine flow: 30 and 60 minutes of infusion vs. pre-infusion; for plasma ANP immunoreactivity / plasma CNP immunoreactivity: RIA; for glomerular filtration rate: inulin clearance; for mean arterial pressure / renal perfusion pressure: BNP at equimolar dose; for renal perfusion pressure: mean arterial pressure minus right atrial pressure
Method: BAA-NP and BUA-NP were reconstituted in normal saline and were infused at 1 mL/minute. Dogs were maintained on a Na^+-controlled diet (Hill's i/d® canine diet, Hill's Pet Nutrition, Inc., Topeka, Kans.). In the evening before the experiment, the dog was fasted with ad lib access to water and was given lithium carbonate 300 mg orally for assessment of renal tubular function on the next day.
On the day of the experiment, the dog was anesthetized with pentobarbital sodium (induction 6-20 mg/kg i.v., maintenance 5-15 mg/kg/h i.v.) and fentanyl (0.04-0.12 mg/kg i.v., maintenance 0.04-0.18 mg/kg/h), and was intubated and mechanically ventilated (Harvard Apparatus, Holliston, Mass.) with 3 L/minute of 02 (tidal volume 15 mL/kg, 12 cycles/minute). The femoral artery was cannulated for blood pressure monitoring and for blood sampling. The femoral vein was cannulated for infusion of inulin and normal saline. The saphenous vein was cannulated for polypeptide infusion. A balloon-tipped thermodilution catheter (Edwards Lifesciences, Irvine, Calif.) was used for monitoring hemodynamics and body temperature (maintained at 38±1° C.). Cardiac output (CO) was measured in triplicate and averaged (model 9510-A, American Edwards Laboratories, Irvine, Calif.). Hemodynamic data were digitally recorded and analyzed (Sonometrics Corporation, London, ON). The left kidney was exposed via a flank incision. The ureter was cannulated for timed urine collection. An electromagnetic flow probe was placed on the renal artery for measuring renal blood flow (Burnett et al., Am. J. Physiol., 247(5 Pt 2):F863-6 (1984)). A weight-adjusted bolus of inulin was given, followed by an inulin infusion (1 mL/minute) to achieve plasma levels of 40-60 mg/dL (Burnett et al., Am. J. Physiol., 247(5 Pt 2):F863-6 (1984); Chen et al., Am. J. Physiol. Regul. Integr. Comp. Physiol., 288(5):R1093-7 (2005); and Margulies et al., J. Clin. Invest., 88(5):1636-42 (1991)), for measuring GFR by inulin clearance. Normal saline was infused (1 mL/minute) and was temporarily discontinued during peptide infusion (1 mL/minute).
Following equilibration of approximately 60 minutes in duration, the BAA-NP or BUA-NP polypeptide was infused for 75 minutes. Hemodynamic and renal data, as well as blood and urine samples, were collected for each 30-minute clearance: pre-infusion, at 30 and 60 minutes of infusion (time denotes mid-clearance). Inulin clearance was used for measuring glomerular filtration rate (GFR). The lithium clearance technique was used for quantifying proximal and distal fractional reabsorption of Na^+ (PFRNa and DFRNa, respectively).
Plasma and urinary ANP, CNP, and cGMP were measured by radioimmunoassays (RIA) (Chen et al., Am. J. Physiol. Regul. Integr. Comp. Physiol., 288(5):R1093-7 (2005); Burnett et al., Science, 231(4742):1145-7 (1986); Steiner et al., J. Biol. Chem., 247(4):1106-13 (1972); Supaporn et al., Kidney Int., 50(5):1718-25 (1996); and Cataliotti et al., Am. J. Physiol., 283(3):F464-72 (2002)). Plasma renin activity (Haber et al., J. Clin. Endocrinol. Metab., 29(10):1349-55 (1969)), angiotensin II (Luchner et al., Hypertension, 28(3):472-7 (1996)), and aldosterone (Sancho and Haber, J. Clin. Endocrinol. Metab., 47(2):391-6 (1978)) were quantified. Plasma and urinary lithium levels were measured by flame emission spectrophotometry (model 357, Instrumentation Laboratory, Wilmington, Mass.) (Margulies et al., J. Clin. Invest., 88(5):1636-42 (1991)). The lithium clearance technique (CLLi) was used to assess PFRNa and DFRNa as follows (Chen et al., Am. J. Physiol. Regul. Integr. Comp. Physiol., 288(5):R1093-7 (2005)): PFRNa=[1−(CLLi/GFR)]×100 and DFRNa=[(CLLi−CLNa)/CLLi]×100, where CLLi=[urine Li^+]×urine flow/[plasma Li^+] and CLNa=[urine Na^+]×urine flow/[plasma Na^+]. Net renal production of cGMP was determined (Margulies et al., J. Clin. Invest., 88(5):1636-42 (1991)): (urinary cGMP×urine flow rate)−(plasma cGMP×GFR). […]

[1] = anesthetized dogs, i.v. infusion
[2] = anesthetized dogs, i.v. infusion, vs. pre-infusion
[3] = anesthetized dogs, i.v. infusion, lithium clearance technique, vs. pre-infusion
[4] = at 30 minutes of infusion, BNP compared to BAA-NP or BUA-NP, equimolar dose
[5] = at 60 minutes of infusion, BNP compared to BAA-NP or BUA-NP, equimolar dose

| Substance | net renal generation of cGMP [1] | plasma cGMP [1] | urinary cGMP excretion [1] | urinary sodium excretion [1] | urine flow [1] | plasma ANP immunoreactivity [2] | plasma CNP immunoreactivity [2] | glomerular filtration rate [2] | distal fractional reabsorption of sodium [3] | proximal fractional reabsorption of sodium [3] | cardiac output [2] | hematocrit (hemoconcentration) [2] | pulmonary arterial pressure [2] | pulmonary capillary pressure [2] | renal blood flow [2] | renal vascular resistance [2] | right atrial pressure [2] | mean arterial pressure [2] | change in renal perfusion pressure from baseline [4] | change in renal perfusion pressure from baseline [5] | other results |
| --- | --- | --- | --- | --- | --- | --- | --- | --- | --- | --- | --- | --- | --- | --- | --- | --- | --- | --- | --- | --- | --- |
| SLRRSSCFGRKMDRISSSSG-LGCNSFRY (SLRRSSCFGRKMDRISSSSGLGCNSFRY) [BAA-NP, 28-residue chimeric natriuretic polypeptide: human ANP residues 1-6, human mature BNP residues 10-26, human ANP residues 24-28] | significantly increased | significantly increased | significantly increased | significantly increased | significantly increased | significantly increased | significantly increased | preserved | significantly reduced | significantly reduced | preserved | significant increase | significantly reduced | significantly reduced | significantly enhanced | significantly reduced | significantly reduced | mild decrease | preserved | preserved | plasma aldosterone [2]: significantly suppressed; plasma angiotensin II [2]: significantly suppressed; plasma renin activity [2]: significantly suppressed; urinary excretion of ANP [2]: significantly increased; urinary excretion of CNP [2]: significantly increased; urinary potassium excretion [2]: significantly increased |
| human BNP: human BNP natriuretic polypeptide, comparator infused at equimolar dose [reference compound] | – | – | – | – | – | – | – | – | – | – | – | – | – | – | – | – | – | significantly reduced | significantly greater decreases | significantly greater decreases | renal perfusion pressure [2]: significantly reduced; change in mean arterial pressure from baseline [4]: significantly greater reduction; change in mean arterial pressure from baseline (at 60 minutes of infusion, BNP versus BAA-NP): greater decrease |
| TAPRSLRRSSCFGRKMDRIS-SSSGLGCNSFRY (TAPRSLRRSSCFGRKMDRISSSSGLGCNSFRY) [BUA-NP, 32-residue chimeric natriuretic polypeptide: human urodilatin residues 1-10, human mature BNP residues 10-26, ANP C-terminus] | significantly increased | significantly increased | significantly increased | significantly increased | significantly increased | significantly increased | significantly increased | preserved | significantly reduced | significantly reduced | preserved | significant increase | significantly reduced | significantly reduced | significantly enhanced | significantly reduced | significantly reduced | mild decrease | preserved | preserved | activation of cGMP (BUA-NP compared with BAA-NP): greater activation; distal fractional reabsorption of sodium (BUA-NP compared with BAA-NP): greater reductions; natriuresis and diuresis (BUA-NP compared with BAA-NP): enhanced; proximal fractional reabsorption of sodium (BUA-NP compared with BAA-NP): greater reductions; renal perfusion pressure [2]: preserved; urinary potassium excretion [2]: significantly increased |
